Data as given in the supplement of paper PMC11451515.

System: SEM cells
Test: cell viability relative to DMSO control; higher = less cytotoxic
Details: 48 h
Outline: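 NOMO1 or SEM (500 cells/well) or P12-Ichikawa (1000 cells/well) leukemia cells were adapted for at least four passages in each medium. They were seeded in 1536-well plates (5 μl) and pin-dosed with library compounds in DMSO over an 11-point threefold series, 47 μM to 0.79 nM. CellTiter-Glo One luminescence was read after 48 h at 37°C. Viability is the per-plate percentage relative to DMSO wells, with cell-free wells as background.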

[1] = HPLM + 10% dialyzed FBS, 0.000781 µM
[2] = HPLM + 10% dialyzed FBS, 0.00234 µM
[3] = HPLM + 10% dialyzed FBS, 0.00702 µM
[4] = HPLM + 10% dialyzed FBS, 0.0211 µM
[5] = HPLM + 10% dialyzed FBS, 0.0632 µM
[6] = HPLM + 10% dialyzed FBS, 0.19 µM
[7] = HPLM + 10% dialyzed FBS, 0.569 µM
[8] = HPLM + 10% dialyzed FBS, 1.71 µM
[9] = HPLM + 10% dialyzed FBS, 5.12 µM
[10] = HPLM + 10% dialyzed FBS, 15.4 µM
[11] = HPLM + 10% dialyzed FBS, 46.1 µM
[12] = RPMI 5 mM glucose + 10% FBS, 0.000781 µM
[13] = RPMI 5 mM glucose + 10% FBS, 0.00234 µM
[14] = RPMI 5 mM glucose + 10% FBS, 0.00702 µM
[15] = RPMI 5 mM glucose + 10% FBS, 0.0211 µM
[16] = RPMI 5 mM glucose + 10% FBS, 0.0632 µM
[17] = RPMI 5 mM glucose + 10% FBS, 0.19 µM
[18] = RPMI 5 mM glucose + 10% FBS, 0.569 µM
[19] = RPMI 5 mM glucose + 10% FBS, 1.71 µM
[20] = RPMI 5 mM glucose + 10% FBS, 5.12 µM
[21] = RPMI 5 mM glucose + 10% FBS, 15.4 µM
[22] = RPMI 5 mM glucose + 10% FBS, 46.1 µM
[23] = RPMI 5 mM glucose + 10% dialyzed FBS, 0.000781 µM
[24] = RPMI 5 mM glucose + 10% dialyzed FBS, 0.00234 µM
[25] = RPMI 5 mM glucose + 10% dialyzed FBS, 0.00702 µM
[26] = RPMI 5 mM glucose + 10% dialyzed FBS, 0.0211 µM
[27] = RPMI 5 mM glucose + 10% dialyzed FBS, 0.0632 µM
[28] = RPMI 5 mM glucose + 10% dialyzed FBS, 0.19 µM
[29] = RPMI 5 mM glucose + 10% dialyzed FBS, 0.569 µM
[30] = RPMI 5 mM glucose + 10% dialyzed FBS, 1.71 µM
[31] = RPMI 5 mM glucose + 10% dialyzed FBS, 5.12 µM
[32] = RPMI 5 mM glucose + 10% dialyzed FBS, 15.4 µM
[33] = RPMI 5 mM glucose + 10% dialyzed FBS, 46.1 µM

Row | SMILES | cell viability [1] [%] | cell viability [2] [%] | cell viability [3] [%] | cell viability [4] [%] | cell viability [5] [%] | cell viability [6] [%] | cell viability [7] [%] | cell viability [8] [%] | cell viability [9] [%] | cell viability [10] [%] | cell viability [11] [%] | cell viability [12] [%] | cell viability [13] [%] | cell viability [14] [%] | cell viability [15] [%] | cell viability [16] [%] | cell viability [17] [%] | cell viability [18] [%] | cell viability [19] [%] | cell viability [20] [%] | cell viability [21] [%] | cell viability [22] [%] | cell viability [23] [%] | cell viability [24] [%] | cell viability [25] [%] | cell viability [26] [%] | cell viability [27] [%] | cell viability [28] [%] | cell viability [29] [%] | cell viability [30] [%] | cell viability [31] [%] | cell viability [32] [%] | cell viability [33] [%]
1 | O=C(O)CCCCCC(=O)NN=C1CCCC1 | 88.6 | 100 | 99.5 | 104 | 119 | 114 | 114 | 117 | 119 | 110 | 104 | 89.8 | 99.3 | 106 | 104 | 96.1 | 104 | 114 | 113 | 100 | 108 | 93.2 | 100 | 99.2 | 111 | 119 | 120 | 101 | 111 | 128 | 117 | 127 | 110
2 | Cc1ccc2nc(NCCN)c3ncc(C)n3c2c1 | 104 | 112 | 111 | 106 | 122 | 113 | 106 | 101 | 102 | 23.2 | 5.23 | 111 | 108 | 129 | 110 | 122 | 119 | 123 | 102 | 108 | 86.4 | 5.06 | 94.9 | 110 | 94.9 | 94.5 | 101 | 106 | 111 | 77.7 | 91 | 67.4 | 4.44
3 | CNc1nc(-c2ccc3c(N)n[nH]c3c2)cc(N2C[C@@H](C(=O)NC3CCCCC3)CC[C@H]2C)n1 | 72.6 | 90 | 83.9 | 81.1 | 83.1 | 84.7 | 59.8 | 57.3 | 60.3 | 48.5 | 14.3 | 89.8 | 85.9 | 102 | 108 | 88.8 | 113 | 82.1 | 78.8 | 71.5 | 47.9 | 2.66 | 80.6 | 90.7 | 76.8 | 76.1 | 79.4 | 83.1 | 71.2 | 57.9 | 63.1 | 50.7 | 10.9
4 | COC1=CC=C(C=C1)/C2=C(O)/C(=O)C3=C(O)C=C(O)C(=C3O2)CC=C(C)C | 104 | 95.9 | 98.8 | 114 | 122 | 111 | 109 | 118 | 107 | 97.8 | 120 | 86.7 | 86.2 | 90.8 | 85.6 | 95.2 | 100 | 93.4 | 92 | 94.1 | 80.4 | 95.2 | 105 | 103 | 115 | 115 | 120 | 113 | 124 | 118 | 125 | 121 | 108
